How the values were obtained:
[1] = test system: valine position in the native protein; details: edit-defective ValRS strain grown with Abu; cited from earlier work
[2] = test system: N[C@@H](Cc1ccc(O)cc1)C(=O)O; assay: Pyrophosphate-exchange assay of adenylate formation; format: biochemical, Methanococcus jannaschii; details: other: mutant TyrRS, 37° C.
Protocol: (§1) Kinetics of adenylate formation of O-methyl-L-tyrosine and tyrosine with adenosine triphosphate (ATP) catalyzed by the mutant TyrRS were analyzed in vitro using a pyrophosphate-exchange assay at 37° C. For example, the mutant TyrRS gene with six histidines at its C-terminus was cloned into plasmid pQE-60 (Qiagen, CA) to generate plasmid pQE-mJYRS. Protein was purified by immobilized metal affinity chromatography according to manufacture's protocol (Qiagen, CA). Pyrophosphate (PPi) exchange was carried out at 37° C. in a reaction mixture containing 100 mM TrisHCl (pH7.5), 10 mM KF, 5 mM MgCl2, 2 mM ATP, 2 mM NaPPi, 0.1 mg/mL bovine serum albumin, approximately 0.01 μCi/μL [^32P]NaPPi, and various concentrations of tyrosine or O-methyl-L-tyrosine. Reactions were initiated with the addition of the purified mutant TyrRS, and aliquots were periodically taken and quenched with 0.2 M NaPPi, 7% perchloric acid, and 2% activated charcoal. The charcoal was filtered and washed with 10 mM NaPPi (pH2), then measured by scintillation counting to determine the ^32P levels in charcoal-adsorbed ATP. Values of kcat and Km were calculated by direct fitting of the Michaelis-Menten equation using nonlinear regression analysis.

[3] = test system: COc1ccc(C[C@H](N)C(=O)O)cc1; assay: as above; format: biochemical, Methanococcus jannaschii; details: other: mutant TyrRS, 37° C.
Protocol: as §1

E. coli cells = assay: LC/MS analysis of toluenized E. coli cells grown with unnatural amino acid; format: cell-based; details: E. coli grown in the presence of the amino acid
Description: Generality of aminoacyl tRNA synthetase evolution. […] The enzyme can be evolved to accommodate a variety of functionalities in place of the phenol side chain of tyrosine and can do so with high selectivity. […] It was not possible to identify an enzyme variant that could accept the pCF unnatural amino acid. A second attempt to evolve a synthetase to accept the pCF amino acid was also unsuccessful.

Escherichia coli = assay: Effect on growth of Escherichia coli host cells; format: cell-based; details: 1 mM added to medium
mutant TyrRS = molecular target: T1, mutant TyrRS (Methanocaldococcus jannaschii, UniProt Q57834, D158A/E107T/L162P/N268S/Y32Q); assay: Pyrophosphate-exchange assay of adenylate formation; format: biochemical, Methanococcus jannaschii
T1 construct: His6 (C); made in house
T1 sequence (Q57834 whole entry Y32Q/E107T/D158A/L162P/N268S): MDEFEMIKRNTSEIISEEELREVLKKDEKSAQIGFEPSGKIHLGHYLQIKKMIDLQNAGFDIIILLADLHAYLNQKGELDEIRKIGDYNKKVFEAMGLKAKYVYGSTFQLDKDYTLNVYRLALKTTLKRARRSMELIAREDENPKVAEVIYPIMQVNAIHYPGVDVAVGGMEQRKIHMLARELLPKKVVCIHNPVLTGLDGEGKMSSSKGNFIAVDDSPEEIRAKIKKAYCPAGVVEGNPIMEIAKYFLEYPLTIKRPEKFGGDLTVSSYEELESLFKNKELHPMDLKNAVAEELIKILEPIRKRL
Protocol: as §1

amber nonsense codon = assay: Fidelity of translation by analysis of dihydrofolate reductase containing the unnatural amino acid; format: cell-based, Escherichia coli; details: incorporation in response to amber nonsense codon
Description: A unique transfer RNA (tRNA)-aminoacyl tRNA synthetase pair has been generated that expands the number of genetically encoded amino acids in Escherichia coli. When introduced into Escherichia coli, this pair leads to the in vivo incorporation of the synthetic amino acid O-methyl-L-tyrosine, added exogenously to the growth medium, into protein in response to an amber nonsense codon. The fidelity of translation is greater than 99%, as determined by analysis of dihydrofolate reductase containing the unnatural amino acid. This approach provides a general method for increasing the genetic repertoire of living cells to include a variety of amino acids with novel structural, chemical and physical properties not found in the common twenty amino acids.

[4] = test system: yeast PheRS / Escherichia coli PheRS; details: cited from earlier work
[5] = test system: Escherichia coli total tRNA / purified tRNA from Halobacterium; assay: In vitro aminoacylation by archaeal leucyl-tRNA synthetases; format: biochemical
Protocol: The next step involved determination of a synthetase that charges the suppressor tRNA without interacting with host tRNA. The two chosen systems, Methanobacterium thermoautotrophicum and Methanococcus jannaschii were expressed, and aminoacylation was performed in vitro on purified tRNA from Halobacterium as a positive control, and for Escherichia coli total tRNA.

[6] = In vitro aminoacylation with leucine and methionine by editing-domain mutants of Methanobacterium thermoautotrophicum RS; format: biochemical
Description: Next, point mutations were made in the editing domain. The catalytic core of the editing domain is well conserved across species and even for different amino acids, at least for the family of branched chain amino acids. Several of these conserved sites have previously been mutated, for example a T→P mutation, and found to knock out editing function. Mutants of Methanobacterium thermoautotrophicum RS were constructed that were similar to several known mutants, and also a 20 member NNK library derived from T214 was made. Proteins were expressed and examined in vitro for aminoacylation with leucine and methionine. None of the previously identified mutations were transferable to our system, but a desirable mutation was identified from the T214 library.

## CCC(N)C(=O)O (centres unmarked) [Abu, aminobutyrate]
[1]
  valines replaced at each valine position: about 24%

## mutant TyrRS (Methanocaldococcus jannaschii DSM 2661; D158A/E107T/L162P/N268S/Y32Q)
[2]
  Km: 5.833 ± 0.902 mM
  kcat: 1.8±0.2×10^−3 s^−1
[3]
  Km: 0.443 ± 0.093 mM
  kcat: 14±1×10^−3 s^−1

## N[C@@H](Cc1ccc(C(=O)O)cc1)C(=O)O [pCF, p-Carboxyl-Phenylalanine]
E. coli cells
  detection in cells by LC/MS: could not be detected

## COc1ccc(C[C@H](N)C(=O)O)cc1 [O-methyl-L-tyrosine]
Escherichia coli
  effect on growth rate of Escherichia coli: does not significantly affect the growth rate
Mutant TyrRS
  kcat/Km relative to tyrosine: about 100 fold
Amber nonsense codon
  fidelity of translation: greater than 99%

## N[C@@H](Cc1ccc(F)cc1)C(=O)O [p-F-Phe, p-fluorophenylalanine]
[4]
  share found at the Phe codon positions: 7%
[4]; excess p-F-Phe in growth media
  share at the mutagenesis site: 64-75%

## N[C@@H](Cc1ccc(O)cc1)C(=O)O [tyrosine]
Mutant TyrRS
  Km relative to O-methyl-L-tyrosine: approximately 13 fold
  kcat relative to O-methyl-L-tyrosine: eight fold less

B1: Methanobacterium thermoautotrophicum synthetase: leucyl-tRNA synthetase from Methanobacterium thermoautotrophicum (protein, UniProt O27552 1-937, looked up)
Leucine--tRNA ligase: MDIERKWRDRWRDAGIFQADPDDREKIFLTVAYPYPSGAMHIGHGRTYTVPDVYARFKRMQGYNVLFPMAWHVTGAPVIGIARRIQRKDPWTLKIYREVHRVPEDELERFSDPEYIVEYFSREYRSVMEDMGYSIDWRREFKTTDPTYSRFIQWQIRKLRDLGLVRKGAHPVKYCPECENPVGDHDLLEGEGVAINQLTLLKFKLGDSYLVAATFRPETIYGATNLWLNPDEDYVRVETGGEEWIISRAAVDNLSHQKLDLKVSGDVNPGDLIGMCVENPVTGQEHPILPASFVDPEYATGVVFSVPAHAPADFIALEDLRTDHELLERYGLEDVVADIEPVNVIAVDGYGEFPAAEVIEKFGVRNQEDPRLEDATGELYKIEHARGVMSSHIPVYGGMKVSEAREVIADELKDQGLADEMYEFAERPVICRCGGRCVVRVMEDQWFMKYSDDAWKDLAHRCLDGMKIIPEEVRANFEYYIDWLNDWACSRRIGLGTRLPWDERWIIEPLTDSTIYMAYYTIAHRLREMDAGEMDDEFFDAIFLDDSGTFEDLREEFRYWYPLDWRLSAKDLIGNHLTFHIFHHSAIFPESGWPRGAVVFGMGLLEGNKMSSSKGNVILLRDAIEKHGADVVRLFLMSSAEPWQDFDWRESEVIGTRRRIEWFREFGERVSGILDGRPVLSEVTPAEPESFIGRWMMGQLNQRIREATRALESFQTRKAVQEALYLLKKDVDHYLKRVEGRVDDEVKSVLANVLHAWIRLMAPFIPYTAEEMWERYGGEGFVAEAPWPDFSDDAESRDVQVAEEMVQNTVRDIQEIMKILGSTPERVHIYTSPKWKWDVLRVAAEVGKLDMGSIMGRVSAEGIHDNMKEVAEFVRRIIRDLGKSEVTVIDEYSVLMDASDYIESEVGARVVIHSKPDYDPENKAVNAVPLKPAIYLE
[5]
  charging of Escherichia coli total tRNA versus Halobacterium tRNA: specific towards the Halobacterium tRNA

B2: T214Q: editing-domain point mutant of Methanobacterium thermoautotrophicum leucyl-tRNA synthetase (protein, UniProt O27552 1-937, looked up, variant T214Q)
Leucine--tRNA ligase: MDIERKWRDRWRDAGIFQADPDDREKIFLTVAYPYPSGAMHIGHGRTYTVPDVYARFKRMQGYNVLFPMAWHVTGAPVIGIARRIQRKDPWTLKIYREVHRVPEDELERFSDPEYIVEYFSREYRSVMEDMGYSIDWRREFKTTDPTYSRFIQWQIRKLRDLGLVRKGAHPVKYCPECENPVGDHDLLEGEGVAINQLTLLKFKLGDSYLVAAQFRPETIYGATNLWLNPDEDYVRVETGGEEWIISRAAVDNLSHQKLDLKVSGDVNPGDLIGMCVENPVTGQEHPILPASFVDPEYATGVVFSVPAHAPADFIALEDLRTDHELLERYGLEDVVADIEPVNVIAVDGYGEFPAAEVIEKFGVRNQEDPRLEDATGELYKIEHARGVMSSHIPVYGGMKVSEAREVIADELKDQGLADEMYEFAERPVICRCGGRCVVRVMEDQWFMKYSDDAWKDLAHRCLDGMKIIPEEVRANFEYYIDWLNDWACSRRIGLGTRLPWDERWIIEPLTDSTIYMAYYTIAHRLREMDAGEMDDEFFDAIFLDDSGTFEDLREEFRYWYPLDWRLSAKDLIGNHLTFHIFHHSAIFPESGWPRGAVVFGMGLLEGNKMSSSKGNVILLRDAIEKHGADVVRLFLMSSAEPWQDFDWRESEVIGTRRRIEWFREFGERVSGILDGRPVLSEVTPAEPESFIGRWMMGQLNQRIREATRALESFQTRKAVQEALYLLKKDVDHYLKRVEGRVDDEVKSVLANVLHAWIRLMAPFIPYTAEEMWERYGGEGFVAEAPWPDFSDDAESRDVQVAEEMVQNTVRDIQEIMKILGSTPERVHIYTSPKWKWDVLRVAAEVGKLDMGSIMGRVSAEGIHDNMKEVAEFVRRIIRDLGKSEVTVIDEYSVLMDASDYIESEVGARVVIHSKPDYDPENKAVNAVPLKPAIYLE
[6]
  charging with leucine: capable of charging with leucine
  charging with methionine: capable of charging methionine

B3: Methanococcus jannaschii synthetase: leucyl tRNA synthetase cloned from Methanococcus jannaschii (protein, UniProt Q58050 1-942, looked up)
Leucine--tRNA ligase: MMVMIDFKEIEKKWQKRWEEAKIFEANPDDREKFFITAAFPYLNGVLHAGHLRTFTIPEVVARFQRMKNKNVLWTFGYHVTGTPILGLAELIKNRDEKTIWAYTELHGIPKEELLELTTPEKIVEYFSKKAEEAFKRMGFSLDWRRNFKTDDKVFNKFIEWQFHKLKEKGLIVKGSHPVRYCPRCDNPVEDHDILVGENATLVEYILIKFTTEDGCIMPMATLRPETVFGVTNVWVNPEATYVKAKVYLEKETENGIELIENGIWIMAKECAEKLKHQDRKIEIIEEFKGEQLINKKVKNPVTGKEVPILPAKFVKTNIGTGCVMSVPAHAPYDYIALRDLGLVDEIGLIPLINVPGYGKYPAKEIVEKMGIKSQEEEDKLEEATKKIYKDEFHKGVLNENCLDYEGIPVREIKDKLTKDLIDKGLAEIMYEFSEEKVICRCGTPCIVKMVKGQWFIKYSDEKWKELAHKCIDKMRFIPENLRQVFHEKIDWMKDKACVRRRGLGTKFPFEEGWVIESLSDSTIYPAYYTVAKYINQHNIKPEQLTLELFDYVFLGKGDVDKIAKETGIPKDIIEGMRKEFIYYYPVDWRCSAKDLIPNHLTFYIFNHVAIFPEEFWPRGIVVNGYVTIEGKKLSKSKGPVLPVLEVAEKFGADVGRFYITTCAELPQDADIKFKEMENTKKVLERLYLFAKEIAERRGETGEEFSYIDKWLLSRLYKAVKQYDEYMENFELRKAGILLYQLLDDLKWYRRRGGNNIRVLEEFLEVIIKLMMPFTPHLCEEMWEILGKEGFVSLAKFPEVKEEFINDEIEKGEEYLKAVMEDIKEIINVAKVQPKRIYLYTADDWKYEILKIIKENEGKTIKELMPIIMKNPEFRKYGKEIPKLVNQLIKLNAEIINEVEVLENAKEFLKKEVGVEDIIINGEDKANKKRVAIPFKPAIYLE
[5]
  charging of Escherichia coli total tRNA versus Halobacterium tRNA: able to effectively charge Escherichia coli tRNA

From patent publication US20060063244A1, “Methods and composition for the production of orthogonal tRNA-aminoacyltRNA synthetase pairs” (The Scripps Research Institute, priority 2001, published 2006)
